Measured values as given in patent US12263248B2, “Compounds and compositions for intracellular delivery of therapeutic agents” (ModernaTX, Inc., priority 2018, dated 2025).
Marks after values point to notes of the source that are not given here.

Columns and labels:
luciferase (Luc) mRNA [1] = assay: Luc expression (total flux) after intramuscular administration; type: in vivo, mice; conditions: for Total flux, 0.001 mpk Dose / Total flux, 0.01 mpk Dose: 6 hours after intramuscular administration, Luc mRNA and H10 mRNA; for Novel lipid/MC3 expression ratio, 6 hr. time point, i.m. Luc / AUC (p/s * h) / Lipid/MC3 AUC: intramuscular; for Novel lipid/MC3 expression ratio, 6 hr. time point, i.m. Luc: relative to MC3 formulation; for AUC (p/s * h) / Lipid/MC3 AUC: Table 3H, Luc
How it was run: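 Total-flux luciferase signal in mice after one intramuscular injection. Nanoparticle formulations contained modified Luc mRNA, either alone or co-dosed with H10 mRNA (e.g., 0.0005 or 0.005 mpk of each), giving 0.001 or 0.01 mpk.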

luciferase (Luc) mRNA [2] = assay: Luc expression in liver, lung, spleen and femur 6 hours after intravenous administration; type: in vivo; conditions: mice, intravenous, 0.5 mpk
How it was run: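 LNP-formulated mRNA given IV to mice (n=3) at 0.5 mpk; at 6 h, bioluminescence imaged ex vivo 15 min after IP D-luciferin (15 mg/mL, 200 μL), organs imaged within 25 min. Values are total flux by region of interest.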

luciferase mRNA = assay: Luciferase expression after subcutaneous administration to mice; type: in vivo, female CD-1 mice; conditions: for Novel lipid/MC3 expression ratio, 6 hr. time point, s.c. Luc 0.5 mpk / Novel lipid/MC3 expression ratio, s.c. Luc 0.5 mpk (AUC): relative to MC3; for Novel lipid/MC3 expression ratio, 6 hr. time point, s.c. Luc 0.5 mpk / Novel lipid/MC3 expression ratio, s.c. Luc 0.5 mpk (AUC) / Lipid/MC3 AUC ratio / AUC (luciferase expression): 0.5 mpk; for Lipid/MC3 AUC ratio: luciferase; for AUC (luciferase expression): whole body BLI; for Novel lipid/MC3 ratio, s.c. Luc 6 hr.: relative to MC3, Table 3G
How it was run: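 Female CD-1 mice given luciferase mRNA in lipid nanoparticle formulations subcutaneously at 0.5 mpk. Expression read by whole-body bioluminescence imaging at 3, 6 and 24 h, with ex vivo liver, spleen and injection-site luminescence at 24 h.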

Compound | Total flux, 0.001 mpk Dose (luciferase (Luc) mRNA [1]) [p/s] | Total flux, 0.01 mpk Dose (luciferase (Luc) mRNA [1]) [p/s] | Total Flux Femur (luciferase (Luc) mRNA [2]) | Total Flux Liver (luciferase (Luc) mRNA [2]) | Total Flux Lung (luciferase (Luc) mRNA [2]) | Total Flux Spleen (luciferase (Luc) mRNA [2]) | Novel lipid/MC3 expression ratio, 6 hr. time point, s.c. Luc 0.5 mpk (luciferase mRNA) | Novel lipid/MC3 expression ratio, 6 hr. time point, i.m. Luc (luciferase (Luc) mRNA [1]) | AUC (p/s * h) (luciferase (Luc) mRNA [1]) | Lipid/MC3 AUC (luciferase (Luc) mRNA [1]) | Novel lipid/MC3 expression ratio, s.c. Luc 0.5 mpk (AUC) (luciferase mRNA) | Lipid/MC3 AUC ratio (luciferase mRNA) | AUC (luciferase expression) (luciferase mRNA) | Novel lipid/MC3 ratio, s.c. Luc 6 hr. (luciferase mRNA)
CCCCCCCCCOC(=O)CCCCCCCN(CCO)CCCCCCCCCC(=O)OC(CCCCCCCC)CCCCCCCC [Compound 23, Heptadecan-9-yl 10-((2-hydroxyethyl)(8-(nonyloxy)-8-oxooctyl)amino) decanoate] | 8.27E+06 | 2.20E+06 | 1.19E+06 | 2.92E+08 | 1.82E+06 | 3.08E+07 | 1.02 |  |  |  |  |  |  | 
CCCCCCCCCOC(=O)CCCCCCCN(CCCO)CCCCCCCC(=O)OC(CCCCCCCC)CCCCCCCC [Compound 19, Heptadecan-9-yl 8-((3-hydroxypropyl)(8-(nonyloxy)-8-oxooctyl)amino) octanoate] | 3.28E+06 | 2.96E+07 | 1.68E+06 | 6.33E+08 | 5.99E+06 | 1.77E+07 | 2.13 | 3.68 |  |  |  |  |  | 
CCCCCCCCC(CCCCCCCC)OC(=O)CCCCCCCN(CCO)CCCCCC(=O)OC(CCCCCCCC)C1CC1 (stereo not drawn) [Compound 128, Heptadecan-9-yl 8-((6-((1-cyclopropylnonyl)oxy)-6-oxohexyl)(2-hydroxyethyl)amino)octanoate] |  |  |  | 5.98E+09 | 2.16E+07 | 7.09E+07 | 0.47 |  | 8.59E+08 | 1.46 |  |  |  | 
CCCC/C=C\CCC(CC/C=C\CCCC)OC(=O)CCCCCCCN(CCO)CCCCCC(=O)OCCCCCCCCCCC [Compound 61, (5Z,12Z)-heptadeca-5,12-dien-9-yl 8-((2-hydroxyethyl)(6-oxo-6-(undecyloxy)hexyl)amino)octanoate] |  |  |  | 6.37E+08 | 3.56E+06 | 1.61E+07 | 0.70 | 3.51 | 2.30E+09 | 3.91 |  |  |  | 
CCCCCCCCCOC(=O)CCCCCCCN(CCCCCCCC(=O)OC(CCCCCCCC)CCCCCCCC)CCCNC(=S)NC [Compound 113, Heptadecan-9-yl 8-((3-(3-methylthioureido)propyl)(8-(nonyloxy)-8-oxooctyl)amino)octanoate] |  |  |  | 1.11E+09 | 5.55E+06 | 5.22E+07 |  | 1.58 | 1.01E+09 | 1.71 | (AUC: 4.30) | 4.30 | 7.3721E+10 (p/s) * h | 4.53
CCCCCCCCC(CC)OC(=O)CCCCCN(CCO)CCCCCCCC(=O)OC(CCCCCCCC)CCCCCCCC (stereo not drawn) [Compound 75, Heptadecan-9-yl 8-((2-hydroxyethyl)(6-oxo-6-(undecan-3-yloxy)hexyl)amino)octanoate] |  |  |  | 1.45E+09 | 3.92E+06 | 5.66E+06 |  | 1.22 | 1.29E+09 | 2.20 | (AUC: 3.05) | 3.05 | 5.2262E+10 (p/s) * h | 3.08
